From PMC6287766 (Molecular cancer therapeutics, 2017)

System: murine brainstem glioma (mBSG) cells
Assay: Cell viability / proliferation IC50
Format: cell-based
Conditions: Mus musculus, read-out: IC50, cell viability

SMILES | IC50 [nM]
Cc1nc(Nc2ncc(C(=O)Nc3c(C)cccc3Cl)s2)cc(N2CCN(CCO)CC2)n1 [dasatinib] | 19 ± 20
COc1cccc2c1C(=O)c1c(O)c3c(c(O)c1C2=O)C[C@@](O)(C(=O)CO)C[C@@H]3O[C@H]1C[C@H](N)[C@H](O)[C@H](C)O1 [doxorubicin] | 710 ± 120
